Data taken from patent US7666874B2, “Pyrimidylaminobenzamide derivatives for hypereosinophilic syndrome” (Novartis AG, priority 2005, dated 2010).

Legend:
TEL-PDGFRβ [1] = test: Murine bone marrow transplant model of TEL-PDGFRβ-induced myeloproliferative disease; format: in vivo, mouse (Balb/C); details: TEL-PDGFRβ transplanted mice
Experimental: (§1) Murine bone marrow transplant experiments are performed as previously described. MSCV-GFP retroviral supernatants are titered by transducing Ba/F3 cells with supernatant (plus polybrene, 10 μg/mL) and analyzing for the percentage of GFP+ cells by flow cytometry at 48 h post-transduction. Balb/C donor mice (Taconic) are treated for 5-6 days with 5-fluorouracil (150 mg/kg, intraperitoneal injection). Bone marrow cells from donor mice are harvested, treated with red blood cell lysis buffer, and cultured 24 h in transplant medium (RPMI+10% FBS+6 ng/mL IL-3, 10 ng/mL IL-6, and 10 ng/mL stem cell factor). Cells are treated by spin infection with retroviral supernatants (1 mL supernatant per 4×10^6 cells, plus polybrene) and centrifuged at 2500 rpm for 90 min. 24 h later, the spin infection is repeated, then cells are washed, resuspended in Hank's balanced salt solution, and injected into lateral tail veins of lethally irradiated (2×450 rad) Balb/C recipient mice (Taconic) at 0.5-1×10^6 cells/mouse. […] Animals are sacrificed when they had palpable splenomegaly or were moribund, or, if healthy, 7 days after sacrifice of the last animal in the placebo group.
(§2) Peripheral blood is collected from the retroorbital cavity using heparinized glass capillary tubes and analyzed by automated complete and differential blood cell counts and smears (stained with Wright and Giemsa). Single cell suspensions of spleen and bone marrow are prepared by pressing tissue through a cell strainer, followed by red blood cell lysis. Cells are frozen in 90% FBS, 10% DMSO.
(§3) For histopathology, tissues are fixed for at least 72 h in 10% neutral buffered formalin, dehydrated in alcohol, cleared in xylene, and infiltrated with paraffin on an automated processor (Leica). The tissue sections (4 μm) from paraffin-embedded tissue blocks are placed on charged slides and deparaffinized in xylene, rehydrated through graded alcohol solutions, and stained with hematoxylin and eosin.
(§4) For flow cytometry, cells are washed in PBS+1% bovine serum albumin (BSA), blocked with Fc-Block (BD Pharmingen) for 10 min on ice, and stained with monoclonal antibodies in PBS+1% BSA for 20 min on ice. Antibodies used are: allophycocyanin (APC)-conjugated Gr1, CD19, and TCRB; and phycoethrin (PE)-conjugated Mac-1, B220, and CD3 (BD Pharmingen). Flow cytometric analysis is performed on a FACSCalibur instrument and analyzed with CellQuest software. Viability is assessed by incubating cells with 7AAD (BD Pharmingen) for 5 min prior to flow cytometry. Cells are gated for viability (using forward/side scatter and 7AAD) and GFP positivity, and 10,000 events are analyzed from this subset for marker expression.
Statistical significance of differences between Compound (II)- and placebo-treated groups in survival time, white blood cell counts, and spleen weights are assessed using a two-sided Mann-Whitney U-test (Wilcoxon rank sum test).
A murine bone marrow transplant protocol is used to model myeloproliferative disease caused by TEL-PDGFRβ and FIP1L1-PDGFRα. Retroviral transduction of these fusion kinases into bone marrow cells of 5FU-treated donor mice, followed by transplantation into lethally irradiated recipients, produces a rapidly fatal myeloproliferative phenotype characterized by leukocytosis with myeloid predominance, splenomegaly, and extramedullary hematopoiesis.
(§5) Donor bone marrow cells are transduced with a murine retroviral vector expressing TEL-PDGFRβ or FIP1L1-PDGFRα and transplanted into recipients.

TEL-PDGFRβ [2] = test: Western blot of TEL-PDGFRβ phosphorylation and signaling intermediates in Ba/F3 cells; format: cell-based
Experimental: For T/P: Ba/F3 cells stably expressing T/P or T/F are treated with serum starvation in plain RPMI 1640 for 4 hours prior to lysis. The cell extracts are clarified by centrifugation and used for immunoprecipitation or immunoblotting. The enzyme-linked immunoblotting procedures are performed as described. Applied antibodies include: rabbit anti-PDGFRβ serum (Pharmingen); rabbit anti-PI3K (p85) serum; mouse anti-phosphotyrosine 4G10 (Upstate Biotechnology); antibodies against FGFR3, phospho-PI3K p85 (Tyr-508) (Santa Cruz Biotechnology); PLCγ, phospho-PLCγ (Tyr-783) (Cell Signaling).

[3] = biological target: T1, Ba/F3 cells transformed by TEL-PDGFRβ T681I mutant (Homo sapiens, UniProt P09619, T681I); test: Proliferation of Ba/F3 cells transformed by TEL-PDGFRβ T681I mutant; format: cell-based; details: Ba/F3 cells transformed with TEL-PDGFRβ T681I mutant
T1 construct: TEL (ETV6) portion (fusion partner); expressed in transfected cells; host or cells: Ba/F3 cells (retroviral transduction, MSCV-neo); the other entry of the earlier key: ETV6 (P41212, Transcription factor ETV6)
Experimental: (§6) TEL-PDGFRβ [T/P], FIP1L1-PDGFRα [F/P], and FIP1L1-PDGFRα T6741 cloned in MSCV-IRES-GFP [MSCV-GFP], and TEL-PDGFRβ, TEL-PDGFRβ T681I, and TEL-FGFR3 [T/F] are cloned in MSCV-neomycin [MSCV-neo].
(§7) Ba/F3 cells are cultured in RPMI 1640 (RPMI)+10% FBS+1 ng/mL mouse interleukin (IL)-3. Retroviral supernatants are generated and used to transduce Ba/F3 cells. T/P MSCV-neo and T/F MSCV-neo cell lines are selected with 1 mg/mL G418 in the presence of IL-3 for 8-10 days. F/P MSCV-GFP cell lines are selected in RPMI lacking IL-3 for 7-10 days. […] Transformed Ba/F3 cells are grown in RPMI lacking IL-3.
(§8) The effects of compounds on viability and proliferation of the cells were determined using the luminescent ATP Detection assay kit ATPLite™ from Perkin Elmer Life Sciences (Cat. No: 6016947) according to the instructions of the suppliers. This assay system is based on the production of light (luminescence) caused by the reaction of ATP with added luciferase and D-luciferin. […]
(§9) The effect of the compound was expressed as percent reduction of the control signal. The TGI50 values were determined from the dose response curves by graphical extrapolation.

FIP1L1-PDGFRα = biological target: T2, FIP1L1-PDGFRα (Homo sapiens, UniProt P16234); test: Murine bone marrow transplant model of FIP1L1-PDGFRα-induced myeloproliferative disease; format: in vivo, mouse (Balb/C); details: FIP1L1-PDGFRα transplanted mice
T2 construct: FIP1L1 portion (fusion partner); expressed in transfected cells; host or cells: Balb/C mouse donor bone marrow cells (retroviral transduction, MSCV-GFP), transplanted into Balb/C recipients; the other entry of the earlier key: FIP1L1 (Q6UN15, Pre-mRNA 3'-end-processing factor FIP1)
Experimental: as §1, §2, §3, §4
A murine bone marrow transplant protocol is used to model myeloproliferative disease caused by TEL-PDGFRβ and FIP1L1-PDGFRα.
as §5

Ba/F3 Tel-PDGFRβ cells = biological target: T3, Ba/F3 Tel-PDGFRβ cells (Homo sapiens, UniProt P09619); test: IL-3 independence cell proliferation assay (ATPLite), Ba/F3 Tel-PDGFRβ; format: cell-based
T3 construct: TEL-PDGFRβ, TEL-PDGFRβ T681I, and TEL-FGFR3 [T/F] are cloned in MSCV-neomycin [MSCV-neo]; fused on or other part: P41212 (Transcription factor ETV6)
Experimental: as §6, §7, §8, §9

[4] = daily oral gavage 150 mg/kg/day from day 11
[5] = daily oral gavage 150 mg/kg/day from day 11 after transplant

T2 sequence (P16234 593-1089 limits assumed): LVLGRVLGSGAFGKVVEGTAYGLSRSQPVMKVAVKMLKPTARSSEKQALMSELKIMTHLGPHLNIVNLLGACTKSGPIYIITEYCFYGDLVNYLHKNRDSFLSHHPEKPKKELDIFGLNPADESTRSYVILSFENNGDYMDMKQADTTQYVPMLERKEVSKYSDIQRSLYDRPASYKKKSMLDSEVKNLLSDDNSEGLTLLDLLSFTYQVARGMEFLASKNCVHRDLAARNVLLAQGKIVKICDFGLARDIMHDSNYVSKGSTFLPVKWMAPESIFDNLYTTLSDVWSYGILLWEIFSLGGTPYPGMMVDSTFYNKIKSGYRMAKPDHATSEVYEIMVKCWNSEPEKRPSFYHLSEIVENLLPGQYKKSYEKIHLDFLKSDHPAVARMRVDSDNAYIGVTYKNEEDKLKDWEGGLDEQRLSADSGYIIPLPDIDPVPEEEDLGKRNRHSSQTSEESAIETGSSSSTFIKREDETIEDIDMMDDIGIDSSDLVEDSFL
T3 sequence (P09619 whole entry, stated change not applied, the tested form may be a part): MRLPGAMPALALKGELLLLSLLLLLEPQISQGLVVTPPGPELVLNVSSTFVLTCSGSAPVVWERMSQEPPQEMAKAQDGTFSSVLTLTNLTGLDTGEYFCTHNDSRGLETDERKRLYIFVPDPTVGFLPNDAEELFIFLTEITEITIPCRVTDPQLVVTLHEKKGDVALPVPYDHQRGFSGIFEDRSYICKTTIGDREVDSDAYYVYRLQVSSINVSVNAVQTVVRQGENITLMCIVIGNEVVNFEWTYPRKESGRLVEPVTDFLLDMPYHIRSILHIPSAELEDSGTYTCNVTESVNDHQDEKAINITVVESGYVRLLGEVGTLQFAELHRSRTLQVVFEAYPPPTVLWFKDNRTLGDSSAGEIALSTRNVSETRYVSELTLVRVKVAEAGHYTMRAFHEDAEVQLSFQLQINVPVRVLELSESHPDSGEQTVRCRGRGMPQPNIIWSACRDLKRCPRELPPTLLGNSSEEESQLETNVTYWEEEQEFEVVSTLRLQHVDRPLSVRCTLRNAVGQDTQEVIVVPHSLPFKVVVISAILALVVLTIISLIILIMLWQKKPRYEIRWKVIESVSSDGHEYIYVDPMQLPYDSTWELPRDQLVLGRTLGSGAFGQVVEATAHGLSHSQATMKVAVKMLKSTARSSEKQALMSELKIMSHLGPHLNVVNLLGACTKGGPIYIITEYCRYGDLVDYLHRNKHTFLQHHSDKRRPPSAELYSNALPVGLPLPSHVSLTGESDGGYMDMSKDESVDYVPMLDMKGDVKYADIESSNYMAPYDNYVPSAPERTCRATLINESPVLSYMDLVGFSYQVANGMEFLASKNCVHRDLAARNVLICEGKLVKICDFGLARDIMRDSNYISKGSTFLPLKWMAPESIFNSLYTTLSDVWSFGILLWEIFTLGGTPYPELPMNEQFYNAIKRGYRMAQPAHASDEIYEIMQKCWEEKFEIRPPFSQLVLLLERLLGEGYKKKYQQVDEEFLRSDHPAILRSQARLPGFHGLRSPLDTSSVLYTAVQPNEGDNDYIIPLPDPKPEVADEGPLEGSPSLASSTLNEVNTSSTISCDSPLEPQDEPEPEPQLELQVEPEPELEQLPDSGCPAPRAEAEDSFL
T1 sequence (P09619 554-1106 T681I limits assumed): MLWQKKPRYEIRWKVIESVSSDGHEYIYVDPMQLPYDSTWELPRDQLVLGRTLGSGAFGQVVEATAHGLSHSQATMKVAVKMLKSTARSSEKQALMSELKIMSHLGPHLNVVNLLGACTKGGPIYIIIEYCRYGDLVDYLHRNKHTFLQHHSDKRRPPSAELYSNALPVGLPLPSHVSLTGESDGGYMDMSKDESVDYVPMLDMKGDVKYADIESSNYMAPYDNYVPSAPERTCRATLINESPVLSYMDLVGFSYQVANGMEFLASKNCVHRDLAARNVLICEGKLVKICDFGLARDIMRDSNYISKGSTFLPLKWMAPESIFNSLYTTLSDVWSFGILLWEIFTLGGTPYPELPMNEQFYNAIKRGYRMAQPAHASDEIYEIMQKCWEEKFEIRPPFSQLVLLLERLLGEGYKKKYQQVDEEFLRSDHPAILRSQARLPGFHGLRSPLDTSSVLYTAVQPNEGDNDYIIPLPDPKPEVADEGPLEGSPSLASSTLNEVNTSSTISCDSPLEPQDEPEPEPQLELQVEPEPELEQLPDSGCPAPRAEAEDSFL

For `Cc1cn(-c2cc(NC(=O)c3ccc(C)c(Nc4nccc(-c5cccnc5)n4)c3)cc(C(F)(F)F)c2)cn1` [Compound (II), 4-methyl-3-[[4-(3-pyridinyl)-2-pyrimidinyl]amino]-N-[5-(4-methyl-1H-imidazol-1-yl)-3-(trifluoromethyl)phenyl] benzamide], the “FACS analysis of spleen, B220+/CD19+ cells” value (TEL-PDGFRβ [1]; compared to placebo) was “slightly increased percentage”, the “FACS analysis of spleen, Gr1+/Mac1+ cells” value (TEL-PDGFRβ [1]; compared to placebo) was “consistently reduced percentage” and the “Histopathology of hematopoietic organs” value (TEL-PDGFRβ [1]; compared to placebo) was “significantly less severe myeloproliferative disease”. For the same compound, the “Liver weight, Mean” value (TEL-PDGFRβ [1]; [4]) was 1492.5 mg, the “Liver weight, Median” value (TEL-PDGFRβ [1]; [4]) was 1535 mg and the “Liver weight, Range” value (TEL-PDGFRβ [1]; [4]) was 1320 to 1590 mg. The “Spleen weight, Mean” value (TEL-PDGFRβ [1]; [4]) was 350.0 mg, the “Spleen weight, Median” value (TEL-PDGFRβ [1]; [4]) was 340 mg and the “Spleen weight, Range” value (TEL-PDGFRβ [1]; [4]) was 250 to 470 mg. For the same compound, the “WBC, Median” value (TEL-PDGFRβ [1]; [4]) was 1.59e+07 mL⁻¹, the “WBC, Range” value (TEL-PDGFRβ [1]; [4]) was 10.9-33.5 ×10^6/mL and the “WBC, Mean” value (TEL-PDGFRβ [1]; [5]) was 1.86e+07 mL⁻¹. For the same compound, the Survival (TEL-PDGFRβ [1]; placebo median latency 17 days, p<0.001) was 26 days, the “Total white blood cells (WBC)” value (TEL-PDGFRβ [1]; vs 563.7 for placebo, p<0.05) was 18.6 ×10^6 cells/mL and the “Phosphorylation of PDGFRβ signaling intermediates including PLCγ and PI3K” value (TEL-PDGFRβ [2]) was “effectively inhibited”. The “TEL-PDGFRβ tyrosine autophosphorylation” value (TEL-PDGFRβ [2]) was “effectively inhibited”, the “Inhibition of transformed Ba/F3 cells” value [3] was “inhibited” and the “Extramedullary hematopoiesis in liver” value (FIP1L1-PDGFRα; compared to placebo) was “notable absence of any extramedullary hematopoiesis”. The “Histopathology of spleen” value (FIP1L1-PDGFRα; compared to placebo) was “striking preservation of normal splenic architecture”, the “Liver weight, Mean” value (FIP1L1-PDGFRα; [4]) was 1128.0 mg and the “Liver weight, Median” value (FIP1L1-PDGFRα; [4]) was 1090 mg. For the same compound, the “Liver weight, Range” value (FIP1L1-PDGFRα; [4]) was 1080 to 1290 mg, the “Spleen weight, Mean” value (FIP1L1-PDGFRα; [4]) was 88.0 mg and the “Spleen weight, Median” value (FIP1L1-PDGFRα; [4]) was 100 mg. For the same compound, the “Spleen weight, Range” value (FIP1L1-PDGFRα; [4]) was 50 to 100 mg, the “WBC, Median” value (FIP1L1-PDGFRα; [4]) was 4.7e+06 mL⁻¹ and the “WBC, Range” value (FIP1L1-PDGFRα; [4]) was 4.0-9.6 ×10^6/mL. For the same compound, the “WBC, Mean” value (FIP1L1-PDGFRα; [5]) was 5.6e+06 mL⁻¹, the “Survival: all treated animals alive and healthy until study termination” value (FIP1L1-PDGFRα; all placebo animals lost by day 24) was ≥ 33 days and the “Total WBC” value (FIP1L1-PDGFRα; vs 569.7 for placebo, p<0.01) was 5.6 ×10^6 cells/mL. For the same compound, the GI50 (Ba/F3 Tel-PDGFRβ cells; Ba/F3 Tel-PDGFRβ cells, 70 h incubation, read-out: IC50, inhibition of proliferation) was < 100 nM and the “Inhibition of transformed Ba/F3 cells” value (Ba/F3 Tel-PDGFRβ cells; Ba/F3 cells transformed with TEL-PDGFRβ) was “inhibited”.
